Data reported in patent publication US20140356433A1, “Pharmaceutical Carrier and Drug Structure Using the Same” (priority 2013, published 2014).

Assay: Retention in stomach, 123I label, single-photon emission computed tomography
Assay type: in vivo
Settings: mice, 24 hours after feeding, 123I labeled, SPECT (FIG. 3)
Source text: Then, in order to examine the retention time of the present drug structure in stomach, sample B of embodiment 1 was labeled with radioactive Iodine 123 (^123I) and fed to experimental mice. Single-photon emission computed tomography was respectively conducted at 1st, 4th, and 24th hour after feeding to observe the location of the present drug structure inside the mice's bodies.

**Q.** Which “presence in stomach after feeding” value does the source give for CC1(C)S[C@@H]2[C@H](NC(=O)[C@H](N)c3ccc(O)cc3)C(=O)N2[C@H]1C(=O)O [amoxicillin] here?
**A.** had no longer existed in the stomach after 24 hours
